According to US20170334899A1, “AMINO-SUBSTITUTED ISOTHIAZOLES” (Bayer Pharma Aktiengesellschaft, priority 2014, published 2017):

What follows are compounds tested against T1, human kinase Mps-1 (Homo sapiens, UniProt P33981) (assay: Mps-1 kinase assay (TR-FRET)). Conditions: Mps-1 TR-FRET kinase assay; avg; read-out: Mps1 avg (IC50 [mol/l]).
T1 construct: N-terminally GST-tagged human full length recombinant Mps-1 kinase; GST (N); purchased Invitrogen, Karslruhe, Germany PV4071
T1 sequence (P33981 1-857): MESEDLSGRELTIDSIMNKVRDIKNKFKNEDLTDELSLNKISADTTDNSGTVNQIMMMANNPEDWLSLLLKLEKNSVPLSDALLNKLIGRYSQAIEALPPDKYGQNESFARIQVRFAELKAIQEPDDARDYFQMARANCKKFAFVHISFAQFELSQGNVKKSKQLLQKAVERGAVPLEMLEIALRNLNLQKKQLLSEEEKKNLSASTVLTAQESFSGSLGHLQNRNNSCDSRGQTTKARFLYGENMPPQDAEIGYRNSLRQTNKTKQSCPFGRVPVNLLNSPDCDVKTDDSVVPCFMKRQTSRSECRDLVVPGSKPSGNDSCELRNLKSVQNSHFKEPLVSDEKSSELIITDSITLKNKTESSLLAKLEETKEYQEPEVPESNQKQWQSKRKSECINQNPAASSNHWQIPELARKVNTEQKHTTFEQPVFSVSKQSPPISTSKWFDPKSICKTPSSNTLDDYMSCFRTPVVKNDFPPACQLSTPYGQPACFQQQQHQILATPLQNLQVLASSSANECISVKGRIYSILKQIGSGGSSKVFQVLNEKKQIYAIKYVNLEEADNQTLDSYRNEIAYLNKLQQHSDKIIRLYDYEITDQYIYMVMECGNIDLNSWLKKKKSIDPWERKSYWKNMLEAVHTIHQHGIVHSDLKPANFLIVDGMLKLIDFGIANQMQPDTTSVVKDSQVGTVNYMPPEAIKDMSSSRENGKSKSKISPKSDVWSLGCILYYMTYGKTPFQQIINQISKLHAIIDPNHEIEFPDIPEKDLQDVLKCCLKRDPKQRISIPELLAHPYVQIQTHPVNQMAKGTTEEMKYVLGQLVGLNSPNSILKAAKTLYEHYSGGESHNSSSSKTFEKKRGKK
Assay type: biochemical
Outline: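 Inhibition normalised between uninhibited reaction (0%) and enzyme-free wells (100%), using the blank-corrected TR-FRET 665/620 nm ratio after EDTA stop. Reaction: ~0.5 nM GST-Mps-1 full length, 10 μM ATP, 1 μM biotin-peptide, 60 min at 22 °C, after 15 min compound pre-binding, pH 7.7.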

IC50 | SMILES
≥ 20 µM | Cc1nsc(Nc2cnc(C(F)(F)F)cn2)c1C(=O)Nc1ccc(F)c(OCC2CCN(C(CF)CF)CC2)c1 [Example 312, N-(3-{[1-(1,3-difluoropropan-2-yl)piperidin-4-yl]methoxy}-4-fluorophenyl)-3-methyl-5-{[5-(trifluoromethyl)pyrazin-2-yl]amino}-1,2-thiazole-4-carboxamide]
≥ 20 µM | CC(=O)N1CCC(Oc2ccc(NC(=O)c3c(C)nsc3Nc3cnc4ccccc4n3)cn2)CC1 [Example 22, N-{6-[(1-acetylpiperidin-4-yl)oxy]pyridin-3-yl}-3-methyl-5-(quinoxalin-2-ylamino)-1,2-thiazole-4-carboxamide]
≥ 20 µM | Cc1nsc(Nc2cnc(C(F)(F)F)cn2)c1C(=O)Nc1ccc(F)c(OCCCN(C)CCC(F)(F)F)c1 [Example 303, N-(4-fluoro-3-{3-[methyl(3,3,3-trifluoropropyl)amino]propoxy}phenyl)-3-methyl-5-{[5-(trifluoromethyl)pyrazin-2-yl]amino}-1,2-thiazole-4-carboxamide]
> 20 µM | Cc1nsc(Nc2cnc(C(F)(F)F)cn2)c1C(=O)Nc1ccc(F)c(OC2CCN(CCF)CC2)c1 [Example 266, N-(4-fluoro-3-{[1-(2-fluoroethyl)piperidin-4-yl]oxy}phenyl)-3-methyl-5-{[5-(trifluoromethyl)pyrazin-2-yl]amino}-1,2-thiazole-4-carboxamide]
> 20 µM | Cc1nsc(Nc2cnc(C(F)(F)F)cn2)c1C(=O)Nc1ccc(F)c(OCCCN(C)CC(F)F)c1 [Example 301, N-(3-{3-[(2,2-difluoroethyl)(methyl)amino]propoxy}-4-fluorophenyl)-3-methyl-5-{[5-(trifluoromethyl)pyrazin-2-yl]amino}-1,2-thiazole-4-carboxamide]
≥ 20 µM | Cc1nsc(Nc2cnc(C(F)(F)F)cn2)c1C(=O)Nc1ccc(F)c(OCCCNCC(F)(F)F)c1 [Example 306, N-(4-fluoro-3-{3-[(2,2,2-trifluoroethyl)amino]propoxy}phenyl)-3-methyl-5-{[5-(trifluoromethyl)pyrazin-2-yl]amino}-1,2-thiazole-4-carboxamide]
14 µM | Cc1nsc(Nc2cnc3ccccc3n2)c1C(=O)Nc1cccc(NS(=O)(=O)C2CN(CC(F)F)C2)c1 [Example 286, N-[3-({[1-(2,2-difluoroethyl)azetidin-3-yl]sulfonyl}amino)phenyl]-3-methyl-5-(quinoxalin-2-ylamino)-1,2-thiazole-4-carboxamide]
> 20 µM | Cc1nsc(Nc2cnc(C(F)(F)F)cn2)c1C(=O)Nc1ccc(OCCCNCCC(F)(F)F)nc1 [Example 294, 3-methyl-5-{[5-(trifluoromethyl)pyrazin-2-yl]amino}-N-(6-{3-[(3,3,3-trifluoropropyl)amino]propoxy}pyridin-3-yl)-1,2-thiazole-4-carboxamide]
≥ 20 µM | Cc1nsc(Nc2cnc(C(F)(F)F)cn2)c1C(=O)Nc1ccc(F)c(OCC2CCN(C(CF)CF)C2)c1 (stereo not shown) [Example 320, N-(3-{[1-(1,3-difluoropropan-2-yl)pyrrolidin-3-yl]methoxy}-4-fluorophenyl)-3-methyl-5-{[5-(trifluoromethyl)pyrazin-2-yl]amino}-1,2-thiazole-4-carboxamide]
> 20 µM | Cc1nsc(Nc2cnc(C(F)(F)F)cn2)c1C(=O)Nc1ccc(C(=O)NC2CN(CC(F)(F)F)C2)cc1 [Example 270, 3-methyl-N-(4-{[1-(2,2,2-trifluoroethyl)azetidin-3-yl]carbamoyl}phenyl)-5-{[5-(trifluoromethyl)pyrazin-2-yl]amino}-1,2-thiazole-4-carboxamide]
> 20 µM | Cc1nsc(Nc2cnc(C(F)(F)F)cn2)c1C(=O)Nc1ccc(OCCCNCC(F)(F)F)nc1 [Example 292, 3-methyl-N-(6-{3-[(2,2,2-trifluoroethyl)amino]propoxy}pyridin-3-yl)-5-{[5-(trifluoromethyl)pyrazin-2-yl]amino}-1,2-thiazole-4-carboxamide]
> 20 µM | Cc1nsc(Nc2cnc3ccccc3n2)c1C(=O)Nc1cccc(NS(=O)(=O)C2CN(CC(F)(F)F)C2)c1 [Example 285, 3-methyl-5-(quinoxalin-2-ylamino)-N-[3-({[1-(2,2,2-trifluoroethyl)azetidin-3-yl]sulfonyl}amino)phenyl]-1,2-thiazole-4-carboxamide]
> 20 µM | Cc1nsc(Nc2cnc(C(F)(F)F)cn2)c1C(=O)Nc1ccc(OCCCO)nc1 [Example 279, N-[6-(3-hydroxypropoxy)pyridin-3-yl]-3-methyl-5-{[5-(trifluoromethyl)pyrazin-2-yl]amino}-1,2-thiazole-4-carboxamide]
≥ 20 µM | Cc1nsc(Nc2cnc(C(F)(F)F)cn2)c1C(=O)Nc1ccc(F)c(OC2CCN(CC(F)F)C2)c1 (stereo not shown) [Example 314, N-(3-{[1-(2,2-difluoroethyl)pyrrolidin-3-yl]oxy}-4-fluorophenyl)-3-methyl-5-{[5-(trifluoromethyl)pyrazin-2-yl]amino}-1,2-thiazole-4-carboxamide]
> 20 µM | Cc1nsc(Nc2cnc3ccccc3n2)c1C(=O)Nc1cccc(C(=O)NC(C)C)c1 [Example 253, N-[3-(isopropylcarbamoyl)phenyl]-3-methyl-5-(quinoxalin-2-ylamino)-1,2-thiazole-4-carboxamide]
> 20 µM | Cc1nsc(Nc2ccc(C#N)cn2)c1C(=O)Nc1cccc(C(=O)NC(C)C)c1 [Example 255, 5-[(5-cyanopyridin-2-yl)amino]-N-[3-(isopropylcarbamoyl)phenyl]-3-methyl-1,2-thiazole-4-carboxamide]
≥ 20 µM | Cc1nsc(Nc2cnc3ccccc3n2)c1C(=O)Nc1ccc(OC2CCN(CC(F)(F)F)CC2)nc1 [Example 21, 3-Methyl-5-(quinoxalin-2-ylamino)-N-(6-{[1-(2,2,2-trifluoroethyl)piperidin-4-yl]oxy}-pyridin-3-yl)-1,2-thiazole-4-carboxamide]
> 20 µM | Cc1nsc(Nc2cnc3ccccc3n2)c1C(=O)Nc1cccc(NS(=O)(=O)C2CCN(C(=O)OC(C)(C)C)C2)c1 (stereo not shown) [Example 290, tert-butyl 3-{[3-({[3-methyl-5-(quinoxalin-2-ylamino)-1,2-thiazol-4-yl]carbonyl}amino)phenyl]sulfamoyl} pyrrolidine-1-carboxylate]
> 20 µM | CCN1CCN(C(=O)c2ccc(NC(=O)c3c(C)nsc3Nc3cnc(C(F)(F)F)cn3)cc2)CC1 [Example 261, N-{4-[(4-ethylpiperazin-1-yl)carbonyl]phenyl}-3-methyl-5-{[5-(trifluoromethyl)pyrazin-2-yl]amino}-1,2-thiazole-4-carboxamide]
> 20 µM | Cc1nsc(Nc2cnc(C(F)(F)F)cn2)c1C(=O)Nc1ccc(F)c(OCCCN(C)CC(F)(F)F)c1 [Example 302, N-(4-fluoro-3-{3-[methyl(2,2,2-trifluoroethyl)amino]propoxy}phenyl)-3-methyl-5-{[5-(trifluoromethyl)pyrazin-2-yl]amino}-1,2-thiazole-4-carboxamide]
> 20 µM | Cc1nsc(Nc2ccc(C#N)cn2)c1C(=O)Nc1cccc(C(=O)NC2CC2)c1 [Example 250, 5-[(5-cyanopyridin-2-yl)amino]-N-[3-(cyclopropylcarbamoyl)phenyl]-3-methyl-1,2-thiazole-4-carboxamide]
> 20 µM | Cc1nsc(Nc2cnc3ccccc3n2)c1C(=O)Nc1cccc(NS(=O)(=O)C2CCN(C(=O)OC(C)(C)C)CC2)c1 [Example 258, tert-butyl 4-{[3-({[3-methyl-5-(quinoxalin-2-ylamino)-1,2-thiazol-4-yl]carbonyl}amino)phenyl]sulfamoyl} piperidine-1-carboxylate]
